Experiments:
Format in all cases: cell-based
[1] = system: Aspergillus niger & Penicillium sp.; experiment: Mould challenge test (mould spore suspension, viable count after 1, 7, 14, 28 days); details: pH 5.5
Description: (§1) The micro-organisms selected for this test were: • i) Pseudomonas cepacia - a gram-negative bacterium, • ii) Candida parapsilosis - a yeast, and • iii) Aspergillus niger & Penicillium sp., - a mixture of moulds.
The above procedure applies to the inoculation of the bacterium and the yeast, and this procedure was varied slightly with the mixed culture of moulds as follows: • i) two samples of each test composition (9.9 ml and 9 ml) were transferred to sterile flasks and 0.1 ml or 1 ml of a mould spore suspension (approximately 10⁸ spores per ml) was introduced into the respective samples and thoroughly mixed. The inoculated samples were incubated at 28°C for up to 28 days with 1 ml samples being aseptically removed for the total viable count as outlined above using Sabouraud's dextrose agar after 1, 7, and 28 days. • ii) "Low risk" compositions eliminate mould spores in 1 to 2 days, "medium risk" compositions take 7 to 14 days to eliminate the spores and the "high risk" compositions still have surviving mould spores after 14 days incubation.

Pseudomonas cepacia = experiment: Challenge test, repeated inoculation with a bacterium until failure; details: Series IV, pH 5.5
Description: A test was devised to assess the ability of selected hydroxyorganic acids to preserve, against microbial spoilage, compositions according to the invention and, by way of comparison, others containing conventional chemical preservative substances.
(§2) This test involved incubating under standard conditions test compositions which have been inoculated with a selected bacterium, yeast or a mixture of moulds. […] Accordingly, the higher the number of "challenges", the better is the preservative. substance in preventing or at least delaying microbial spoilage.
as §1
(§3) The method of testing was as follows: • i) Introduce aseptically 99 ml of test composition into a 250 ml flask and add 1 ml of inoculum of one of the test organisms (see above), to provide a dilution of 10⁶ cells/ml in the composition. • ii) mix and incubate at 28°C for 24 hours. • iii) remove 1 ml of incubated composition from the flask and add to it 9 ml of peptone water/Tween 80 as diluent and mix thoroughly. • iv) place 1 ml of diluted sample into a petri dish and add warm, molten agar (40°C) and mix to distribute culture uniformly and allow to set. • v) incubate plates for 3 days at 28°C and then count colonies and note log reduction of count (due to the presence of the preservative in the original culture composition).
(§4) The inoculation of the organisms originally introduced into each composition is then repeated at 24 hour intervals, following removal of the first total viable count sample, the plating out and counting procedure being repeated on each occasion. The test is terminated when the samples show a contamination level greater than 10² counts per ml on 2 consecutive days. This point is regarded as the failure point for the composition under test.
(§5) The greater the number of inoculations of contaminant organisms before this level of contamination is established in the composition, the better the preservative system.

[2] = system: one of the test organisms; experiment: Challenge test, inoculations to failure, Series V (organism not stated in Table 10); details: 1% w/w added to oil-in-water skin cream, pH 5.5
Description: as §2, §3, §4, §5
Various preservative materials were added to samples of this base formulation. The resulting compositions were subjected to the mould challenge test, as set out in Table 10 below.

[3] = Series IV, 0.1 % w/w in water-in-oil cream
[4] = Series IV, 0.25 % w/w in water-in-oil cream
[5] = Series IV, 0.5 % w/w in water-in-oil cream
[6] = Series IV, 0.75 % w/w in water-in-oil cream
[7] = Series IV, 1 % w/w in water-in-oil cream
[8] = Series V, 1% w/w added to oil-in-water skin cream

For `CCCCCCC(O)C(=O)O` (stereo not shown) [2-hydroxyoctanoic acid], the “mould challenge 1%” value [1, 3] was “++”, the “mould challenge 10%” value [1, 3] was “++” and the “mould challenge 1%” value [1, 4] was “++”. For the same compound, the “mould challenge 10%” value [1, 4] was “++”, the “mould challenge 1%” value [1, 5] was “+” and the “mould challenge 10%” value [1, 5] was “++”. For the same compound, the “mould challenge 1%” value [1, 6] was “+”, the “mould challenge 10%” value [1, 6] was “++” and the “mould challenge 1%” value [1, 7] was “-”. The “mould challenge 10%” value [1, 7] was “-”, the “mould challenge 1%” value [1, 8] was “+” and the “number of inoculations of bacteria to failure” value (from here on “number”) (Pseudomonas cepacia; 0.1 % w/w in water-in-oil cream) was 4. For the same compound, the “number” value (Pseudomonas cepacia; 0.25 % w/w in water-in-oil cream) was 4, the “number” value (Pseudomonas cepacia; 0.5 % w/w in water-in-oil cream) was 20 and the “number” value (Pseudomonas cepacia; 0.75 % w/w in water-in-oil cream) was greater than 20. For the same compound, the “number” value (Pseudomonas cepacia; 1 % w/w in water-in-oil cream) was greater than 20 and the “No of inoculations to failure” value [2] was greater than 20.

With `COCCCCCCCC=CCC(O)C(=O)O` (stereo not shown) ['oxa' hydroxy acid, 2-Hydroxy-13-oxa-4-tetradecenoic acid] the “preservation against the mould challenge (in words)” value ([1]; Series II) was “good preservation”.

`CCCCCCCCCCCC(=O)O` [Lauric acid, reference compound] was tested, and the “mould challenge 1%” value [1, 8] was “++++” and the “No of inoculations to failure” value [2] was 1.

In the case of `CCCCCCCCCCCC(=O)OCC(O)CO` (stereo not shown) [Monolaurin, reference compound], the “mould challenge 1%” value [1, 8] is reported as “++++” and the “No of inoculations to failure” value [2] is reported as 1.

Reference: patent EP0568307A1, “Cosmetic composition containing alpha hydroxy carboxylic acids as preservatives” (priority 1992, dated 1993)
